What all share (format): biochemical
Common to all, as to conditions: agonist; pH 7.4 (calcium); GTPγS binding at 1 μM ligand, 30°C; dose-response curves only in figures
On the technique in general: Binding of GTPγS marks nucleotide exchange on a G protein.

Experiment [1] deals with T1, zebrafish Blt2b (Danio rerio, UniProt E7F4K9).
T1 construct: gene ltb4r2b; also HEK293 with Gq/i1; LC009451 assigned by order of listing
T1 sequence (E7F4K9 1-339): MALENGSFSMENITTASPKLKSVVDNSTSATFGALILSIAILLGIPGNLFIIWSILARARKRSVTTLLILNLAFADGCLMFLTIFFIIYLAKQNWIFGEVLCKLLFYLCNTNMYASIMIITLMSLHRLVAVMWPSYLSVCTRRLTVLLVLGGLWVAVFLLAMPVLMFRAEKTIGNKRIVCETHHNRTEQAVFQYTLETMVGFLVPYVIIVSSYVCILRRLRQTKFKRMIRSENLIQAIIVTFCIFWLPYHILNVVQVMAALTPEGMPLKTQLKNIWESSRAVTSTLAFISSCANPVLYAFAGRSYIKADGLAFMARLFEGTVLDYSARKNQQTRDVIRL
Put plainly: calcium mobilization (Fluo-8), […]GTPγS binding, cAMP inhibition, TGFα shedding. Background: A change in cytosolic calcium serves as a functional read-out for many receptors and channels.

The target in experiment [2] is T2, hBLT2 (Homo sapiens, UniProt Q9NPC1).
T2 construct: gene LTB4R2; also HEK293 with Gq/i1
T2 sequence (Q9NPC1 1-358): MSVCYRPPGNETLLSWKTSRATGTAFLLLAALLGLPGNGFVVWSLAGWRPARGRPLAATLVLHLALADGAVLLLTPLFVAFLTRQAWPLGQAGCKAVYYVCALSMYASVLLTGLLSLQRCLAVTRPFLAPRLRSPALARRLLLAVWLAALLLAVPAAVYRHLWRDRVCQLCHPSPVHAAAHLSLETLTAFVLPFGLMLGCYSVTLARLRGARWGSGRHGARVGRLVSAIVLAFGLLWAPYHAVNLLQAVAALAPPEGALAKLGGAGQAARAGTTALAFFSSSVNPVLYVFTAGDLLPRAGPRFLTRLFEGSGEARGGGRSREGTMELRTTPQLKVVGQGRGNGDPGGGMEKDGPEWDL
The description is as above.

Experiment [3] deals with T3, zebrafish Blt1 (Danio rerio, UniProt A0A0A8JWS4).
T3 construct: gene ltb4r; also HEK293 with Gq/i1
T3 sequence (A0A0A8JWS4 1-380): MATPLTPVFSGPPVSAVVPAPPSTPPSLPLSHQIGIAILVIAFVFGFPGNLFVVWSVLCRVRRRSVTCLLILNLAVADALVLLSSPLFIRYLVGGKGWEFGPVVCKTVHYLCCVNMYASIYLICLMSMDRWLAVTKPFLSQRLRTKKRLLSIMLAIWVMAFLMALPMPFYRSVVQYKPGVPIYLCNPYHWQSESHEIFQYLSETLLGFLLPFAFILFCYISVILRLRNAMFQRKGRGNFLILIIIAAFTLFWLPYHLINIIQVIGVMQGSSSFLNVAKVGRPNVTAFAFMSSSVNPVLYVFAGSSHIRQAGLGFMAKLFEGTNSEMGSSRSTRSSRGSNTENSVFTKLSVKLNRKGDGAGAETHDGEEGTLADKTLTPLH
Described as above.

Experiment [4] addresses T2, hBLT2.
The target in experiment [5] is T4, zebrafish Blt2a (Danio rerio, UniProt A0A0A8JZN4).
T4 construct: gene ltb4r2a; also HEK293 with Gq/i1; LC009450 assigned by order of listing
T4 sequence (A0A0A8JZN4 1-382): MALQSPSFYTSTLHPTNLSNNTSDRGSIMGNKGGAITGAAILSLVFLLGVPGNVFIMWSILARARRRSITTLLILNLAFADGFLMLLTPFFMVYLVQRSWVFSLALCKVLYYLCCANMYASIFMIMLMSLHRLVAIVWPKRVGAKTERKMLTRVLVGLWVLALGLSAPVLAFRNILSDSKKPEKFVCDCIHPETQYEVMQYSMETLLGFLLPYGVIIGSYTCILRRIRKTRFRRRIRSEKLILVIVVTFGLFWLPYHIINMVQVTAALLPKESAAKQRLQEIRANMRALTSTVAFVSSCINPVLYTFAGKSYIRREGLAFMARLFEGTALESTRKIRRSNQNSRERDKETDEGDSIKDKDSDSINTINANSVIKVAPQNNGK
The experiment in a line: calcium mobilization (Fluo-8), […]GTPγS binding, TGFα shedding.

Experiment [6] deals with T5, hBLT1 (Homo sapiens, UniProt Q15722).
T5 construct: gene LTB4R; also HEK293 with Gq/i1
T5 sequence (Q15722 whole entry): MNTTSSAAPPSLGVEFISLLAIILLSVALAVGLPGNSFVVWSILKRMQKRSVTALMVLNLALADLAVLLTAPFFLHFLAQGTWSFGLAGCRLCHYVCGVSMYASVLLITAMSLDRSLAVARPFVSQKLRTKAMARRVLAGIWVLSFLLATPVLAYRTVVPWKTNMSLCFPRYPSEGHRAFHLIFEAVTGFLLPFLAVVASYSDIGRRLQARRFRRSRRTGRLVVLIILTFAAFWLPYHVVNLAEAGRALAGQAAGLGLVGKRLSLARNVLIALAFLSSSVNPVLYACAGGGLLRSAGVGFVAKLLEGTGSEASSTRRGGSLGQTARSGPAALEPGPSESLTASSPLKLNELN
The experiment in a line: calcium mobilization (Fluo-8), […]GTPγS binding, cAMP inhibition, TGFα shedding.

The target of experiment [7] is T1, zebrafish Blt2b. Put plainly: calcium mobilization (Fluo-8), […]GTPγS binding, TGFα shedding.

On to `CCCCC[C@H](O)/C=C/C=C/C/C=C\CCCC(=O)O` [12-HHT, 12(S)-hydroxy-5-cis-8,10-trans-heptadecatrienoic acid], for which the “calcium mobilization (Fluo-8), [35S]GTPγS binding, cAMP inhibition, TGFα sheddin” value in experiment [1] was 12-HHT activated zebrafish Blt2a and Blt2b at lower doses than LTB4; in experiment [2], “exhibited a dose-dependent increase in response to either 12-HHT or LTB4 stimulation”.
On to `CCCCC/C=C\C[C@@H](O)/C=C/C=C/C=C\[C@@H](O)CCCC(=O)O` [LTB4], for which the “calcium mobilization (Fluo-8), [35S]GTPγS binding, cAMP inhibition, TGFα sheddin” value in experiment [3] and in experiment [6] was “intracellular free calcium concentration increased in a dose-dependent manner in response to LTB4 stimulation” throughout. Besides, the “calcium mobilization (Fluo-8), [35S]GTPγS binding, TGFα shedding” value in experiment [4], in experiment [5] and in experiment [7] was “exhibited a dose-dependent increase in response to either 12-HHT or LTB4 stimulation” each time.

These data come from article PMC4349892, “Biochemical Characterization of Three BLT Receptors in Zebrafish” (PLoS ONE, 2015).
